Data taken from USRE48461E1, “Modulation of androgen receptor expression” (Ionis Pharmaceuticals, Inc., priority 2012, dated 2021).

Assays:
Format in all cases: cell-based, human
AR mRNA [1] = assay: Time-course AR mRNA expression in C4-2B cells (8, 24, 48 hours); settings: for Percent expression of AR compared to the control group in 8 hours / Percent expression of AR compared to the control group in 24 hours / Percent expression of AR compared to the control group in 48 hours: C4-2B cells
Description: C4-2B cells were plated at 1,000 cells per well in complete medium. […] After a treatment period of 8 hours, 24 hours, and 48 hours, AR expression was measured with primer probe set hAR-LTS00943.

TMPRSS2 mRNA = assay: TMPRSS2 expression in C4-2 cells; settings: 48 hrs; for Percent inhibition of TMPRSS2 expression: C4-2 cells, CSS + DHT medium
Description: Cells were plated at 1,000 cells per well. […] After an incubation period of 48 hrs, RNA levels of AR, PSA and TMPRSS2 were measured.
Cells were plated at 2,000 cells per well and cultured in CSS media with 1 nM DHT. […] After an incubation period of 48 hrs, RNA levels of AR, PSA and TMPRSS2 were measured.

AR mRNA [2] = assay: AR RNA expression in C4-2B cells (complete, CSS+DHT medium; Example 30); settings: 48 hrs
Description: Cells were plated at 1,000 cells per well. […] ISIS 549148 was included as a negative control. […] After an incubation period of 48 hrs, RNA levels of AR, PSA and TMPRSS2 were measured.
Cells were plated at 2,000 cells per well and cultured in CSS media with 1 nM DHT. […] ISIS 549148 was included as a negative control. […] After an incubation period of 48 hrs, RNA levels of AR, PSA and TMPRSS2 were measured. In the absence of DHT, AR expression in C4-2 cells was 188%, PSA expression was 43% and TMPRSS2 expression was 27% compared to the untreated control.

AR V7 variant mRNA [3] = assay: AR V7 variant RNA in VCaP cells; settings: RNAiMax, 48 hrs
Description: Cells were plated at 10,000 cells per well. […] ISIS 549148 was included as a negative control. After an incubation period of 48 hrs, RNA levels of full length AR, the V7 variant, PSA and TMPRSS2 were measured.
A separate set of cells was treated with MDV-3100 at 0.04 μM, 0.2 μM, 1.0 μM, or 5.0 μM. After an incubation period of 48 hrs, RNA levels of full length AR, the V7 variant, PSA and TMPRSS2 were measured. The data is presented in Tables 108 expressed as percent expression of gene levels compared to the untreated control.
Cells were plated at 15,000 cells per well and cultured in CSS media for 16 hours. […] ISIS 549148 was included as a negative control. After 4 hrs, 1 nM DHT was added. […] After an incubation period of 48 hrs, RNA levels of AR, PSA and TMPRSS2 were measured. […]

PSA mRNA = assay: PSA expression in VCaP cells; settings: RNAiMax, 48 hrs
Description: Cells were plated at 10,000 cells per well. […] After an incubation period of 48 hrs, RNA levels of full length AR, the V7 variant, PSA and TMPRSS2 were measured.
After an incubation period of 48 hrs, RNA levels of full length AR, the V7 variant, PSA and TMPRSS2 were measured. The data is presented in Tables 108 expressed as percent expression of gene levels compared to the untreated control.
Cells were plated at 15,000 cells per well and cultured in CSS media for 16 hours. […] After 4 hrs, 1 nM DHT was added. […] After an incubation period of 48 hrs, RNA levels of AR, PSA and TMPRSS2 were measured.

VCaP cells = assay: VCaP apoptosis (Caspase-Glo 3/7); settings: complete medium, 72 hours; for Apoptosis (% untreated control): VCaP cells
Description: After a treatment period of 72 hours in complete medium, apoptosis of the cancer cells was measured with Caspase-Glo 3/7 assay (Promega). Results are presented in Tables 117 and 118 as percent apoptosis of the cells, relative to non-treated cells.

AR V7 variant mRNA [4] = assay: AR V7 variant RNA in 22RV1 cells; settings: RNAiMax, 48 hrs

TTGATTTAATGGTTGC [ISIS 560131] (MOE and (S)-cEt gapmer chemistry, further chemistry not given here) [targets intron 1]
Percent expression of AR compared to the control group in 8 hours (AR mRNA [1]; 0.04 μM): 110%
Percent expression of AR compared to the control group in 24 hours (AR mRNA [1]; 0.04 μM): 47%
Percent expression of AR compared to the control group in 48 hours (AR mRNA [1]; 0.04 μM): 33%
Percent expression of AR compared to the control group in 8 hours (AR mRNA [1]; 0.2 μM): 85%
Percent expression of AR compared to the control group in 24 hours (AR mRNA [1]; 0.2 μM): 18%
Percent expression of AR compared to the control group in 48 hours (AR mRNA [1]; 0.2 μM): 5%
Percent expression of AR compared to the control group in 8 hours (AR mRNA [1]; 1 μM): 68%
Percent expression of AR compared to the control group in 24 hours (AR mRNA [1]; 1 μM): 5%
Percent expression of AR compared to the control group in 48 hours (AR mRNA [1]; 1 μM): 6%
Percent expression of AR compared to the control group in 8 hours (AR mRNA [1]; 5.0 μM): 45%
Percent expression of AR compared to the control group in 24 hours (AR mRNA [1]; 5.0 μM): 4%
Percent expression of AR compared to the control group in 48 hours (AR mRNA [1]; 5.0 μM): 4%
AR expression (AR mRNA [1]; C4-2B cells, 8, 24 and 48 hours): reduced AR expression in the cells relative to the control set
Percent inhibition of TMPRSS2 expression (TMPRSS2 mRNA; 0.04 μM): 10%
Percent inhibition of TMPRSS2 expression (TMPRSS2 mRNA; 0.2 μM): 17%
Percent inhibition of TMPRSS2 expression (TMPRSS2 mRNA; 1 μM): 51%
Percent inhibition of TMPRSS2 expression (TMPRSS2 mRNA; 5.0 μM): 78%
Percent inhibition of TMPRSS2 expression in C4-2 cells cultured in complete medium (TMPRSS2 mRNA; 0.04 μM): 29%
Percent inhibition of TMPRSS2 expression in C4-2 cells cultured in complete medium (TMPRSS2 mRNA; 0.2 μM): 62%
Percent inhibition of TMPRSS2 expression in C4-2 cells cultured in complete medium (TMPRSS2 mRNA; 1 μM): 76%
Percent inhibition of TMPRSS2 expression in C4-2 cells cultured in complete medium (TMPRSS2 mRNA; 5.0 μM): 71%
Percent expression of AR (AR mRNA [2]; CSS + DHT medium, 0.04 μM): 55%
Percent expression of AR (AR mRNA [2]; CSS + DHT medium, 0.2 μM): 31%
Percent expression of AR (AR mRNA [2]; CSS + DHT medium, 1 μM): 15%
Percent expression of AR (AR mRNA [2]; CSS + DHT medium, 5.0 μM): 13%
Percent expression of AR (AR mRNA [2]; complete medium, 0.04 μM): 34%
Percent expression of AR (AR mRNA [2]; complete medium, 0.2 μM): 15%
Percent expression of AR (AR mRNA [2]; complete medium, 1 μM): 14%
Percent expression of AR (AR mRNA [2]; complete medium, 5.0 μM): 14%
Percent inhibition of AR V7 variant (AR V7 variant mRNA [3]; CSS + DHT medium, 1.34 nM): 27%
Percent inhibition of AR V7 variant (AR V7 variant mRNA [3]; CSS + DHT medium, 4.0 nM): 31%
Percent inhibition of AR V7 variant (AR V7 variant mRNA [3]; CSS + DHT medium, 13.4 nM): 39%
Percent inhibition of AR V7 variant (AR V7 variant mRNA [3]; CSS + DHT medium, 40 nM): 41%
Percent inhibition of AR V7 variant (AR V7 variant mRNA [3]; complete medium, 1.34 nM): 0%
Percent inhibition of AR V7 variant (AR V7 variant mRNA [3]; complete medium, 4.0 nM): 57%
Percent inhibition of AR V7 variant (AR V7 variant mRNA [3]; complete medium, 13.4 nM): 78%
Percent inhibition of AR V7 variant (AR V7 variant mRNA [3]; complete medium, 40 nM): 84%
Percent inhibition of PSA expression (PSA mRNA; CSS + DHT medium, 1.34 nM): 0%
Percent inhibition of PSA expression (PSA mRNA; CSS + DHT medium, 4.0 nM): 35%
Percent inhibition of PSA expression (PSA mRNA; CSS + DHT medium, 13.4 nM): 69%
Percent inhibition of PSA expression (PSA mRNA; CSS + DHT medium, 40 nM): 73%
Percent inhibition of PSA expression (PSA mRNA; complete medium, 1.34 nM): 2%
Percent inhibition of PSA expression (PSA mRNA; complete medium, 4.0 nM): 24%
Percent inhibition of PSA expression (PSA mRNA; complete medium, 13.4 nM): 35%
Percent inhibition of PSA expression (PSA mRNA; complete medium, 40 nM): 46%
Apoptosis (% untreated control) (VCaP cells; 1.34 nM): 189 % untreated control
Apoptosis (% untreated control) (VCaP cells; 4.0 nM): 253 % untreated control
Apoptosis (% untreated control) (VCaP cells; 13.4 nM): 356 % untreated control
Apoptosis (% untreated control) (VCaP cells; 40 nM): 262 % untreated control
apoptosis of VCaP cells (VCaP cells): increased apoptosis of the cells in a dose dependent compared to the control
Percent inhibition of AR V7 variant (AR V7 variant mRNA [4]; CSS + DHT medium, 1.34 nM): 63%
Percent inhibition of AR V7 variant (AR V7 variant mRNA [4]; CSS + DHT medium, 4.0 nM): 83%
Percent inhibition of AR V7 variant (AR V7 variant mRNA [4]; CSS + DHT medium, 13.4 nM): 93%
Percent inhibition of AR V7 variant (AR V7 variant mRNA [4]; complete medium, 1.34 nM): 12%
Percent inhibition of AR V7 variant (AR V7 variant mRNA [4]; complete medium, 4.0 nM): 29%
Percent inhibition of AR V7 variant (AR V7 variant mRNA [4]; complete medium, 13.4 nM): 57%
Percent inhibition of AR V7 variant (AR V7 variant mRNA [4]; complete medium, 40 nM): 81%
